Series [1] deals with African monkey kidney (vero) cells. Put plainly: MTT cytotoxicity assay, vero cells. The format is cell-based. The note with it: Primates; vero cells, MTT, 48 h; read-out: IC50 Vero. The text has this: (§1) This assay is based on the ability of a mitochondrial dehydrogenase enzyme from viable cells to cleave the tetrazolium rings of the pale yellow MTT and thereby form dark blue formazan crystals, which are largely impermeable to cell membranes, resulting in their accumulation within healthy cells. The amount of generated formazan is directly proportional to the number of cells. […] Cells were maintained in Eagle’s Minimum Essential Medium (MEM) containing 10% fetal bovine serum (FBS). A cell density of 20.000 cells per well in 100 μL were seeded on 96-well plates and incubated for 12 h at 37 °C and 5% CO2 to attach to the surface. […] The plates were incubated for 48 h at 37 °C and 5% CO2, followed by an addition of 10 µL MTT viability indicator reagent. The plates were incubated for additional 4 h at the same conditions. Next, all media was removed from the plates and 100 µL DMSO was added to dissolve the formazan crystals. The plates were read on a Multiskan EX Labsystems scanning multi-well spectrophotometer at 562 nm, and 620 nm as reference. The results were recorded as optical density (OD) per well at each drug concentration. The data was transferred into the software Microsoft Excel and expressed as percentage of the untreated controls.
In general terms: Formazan colour is commonly taken as a measure of viable cells.

Series [2] has as its system mouse breast cancer (4T1) cells. Put plainly: MTT cytotoxicity assay, 4T1 cells. The series is classed as cell-based. To be noted: 4T1, 48 h, pure compounds.
Source text: as §1

For series [3], the system named is MDA-MB-231 human breast cancer cells. Put plainly: Alamar Blue cytotoxicity assay, MDA-MB-231 cells. To be noted: pure compounds, 72 h. The format is cell-based. The procedure:
Cytotoxicity tests on MDA-MB-231 cells were carried out following a previously described procedure. MDA-MB-231 human breast cancer cells were cultured in Dulbecco’s modified eagle medium (DMEM) supplemented with 10% (v/v) fetal bovine serum, 2 mM L-glutamine, 100 units/mL penicillin and 100 μg/mL streptomycin at 37 °C in humidified 5% CO2. For cytotoxicity assays, cells were seeded in 96-well plates at optimal cell density (10,000 cells per well) to ensure exponential growth for the duration of the assay. After a 24 h preincubation growth, the medium was replaced with experimental medium containing the appropriate drug concentrations or vehicle controls (0.1% or 1.0% v/v DMSO). After 72 h of incubation, cell viability was measured using Alamar Blue reagent (Invitrogen Ab, Lidingö, Sweden) according to the manufacturer’s instructions. Absorbance was measured at 570 nm with 600 nm as a reference wavelength. Results were expressed as the mean ± standard error for six replicates as a percentage of vehicle control (taken as 100%). Experiments were performed independently at least six times. Statistical analyses were performed using a two-tailed Student’s t-test. p < 0.05 was considered to be statistically significant.
Background: Alamar Blue is a resazurin reagent that responds to reducing activity.

In series [4] the test system is chloroquine-resistant W2 strain of P. falciparum. The experiment in a line: In vitro antiplasmodial assay, (G-3H) hypoxanthine incorporation, W2 strain. The series is classed as cell-based. To be noted: Plasmodium falciparum, pure compounds. The procedure:
(§2) Continuous in vitro cultures of asexual erythrocytic stages of Indochinese chloroquine-resistant W2 and Sierra Leonean chloroquine-sensitive D6 strains of P. falciparum were maintained following the modified procedure described by Trager and Jensen. Drug assay was carried out following a modification of the semiautomated microdilution technique, which measures the ability of the extracts to inhibit the incorporation of (G-^3H) hypoxanthine into the malaria parasite. […] Data was transferred into the software Microsoft Excel and was expressed as the percentage of the untreated controls. The drug concentration required for 50% inhibition of (G-^3H) hypoxanthine incorporation into parasite nucleic acid was calculated with nonlinear regression analysis of the dose-response curve.

Series [5] relates to 3D7 strain of P. falciparum. Further details: method as in PMID 14598212. To be noted: cited from earlier work.
For another series, the system named is vero cells. Put plainly: Interaction of oleanonic acid (2) with other triterpenoids, fixed ratios, vero cell cytotoxicity. The format is cell-based, African monkey. The source says:
This assay is based on the ability of a mitochondrial dehydrogenase enzyme from viable cells to cleave the tetrazolium rings of the pale yellow MTT and thereby form dark blue formazan crystals, which are largely impermeable to cell membranes, resulting in their accumulation within healthy cells. The amount of generated formazan is directly proportional to the number of cells. […] Cells were maintained in Eagle’s Minimum Essential Medium (MEM) containing 10% fetal bovine serum (FBS). A cell density of 20.000 cells per well in 100 μL were seeded on 96-well plates and incubated for 12 h at 37 °C and 5% CO2 to attach to the surface. […] The plates were incubated for 48 h at 37 °C and 5% CO2, followed by an addition of 10 µL MTT viability indicator reagent. The plates were incubated for additional 4 h at the same conditions. Next, all media was removed from the plates and 100 µL DMSO was added to dissolve the formazan crystals. The plates were read on a Multiskan EX Labsystems scanning multi-well spectrophotometer at 562 nm, and 620 nm as reference. The results were recorded as optical density (OD) per well at each drug concentration. The data was transferred into the software Microsoft Excel and expressed as percentage of the untreated controls. Percentage cytotoxicity (PC) as compared to the untreated controls was calculated as PC = [A − B/A] × 100, where A is the mean OD of the untreated cells and B is the mean OD at each drug concentration. The drug concentration required for 50% inhibition of cell growth was estimated using nonlinear regression analysis of the dose- response curve. The interaction of oleanonic acid (2) with other triterpenoids was studied using the fixed concentration ratios oleanonic acid: ‘other triterpenoid’ 0:1, 1:3, 1:1, 3:1, 1:0. The vero cell cytotoxicity assay was used, as described above, to evaluate the toxicity of the mixtures. To determine whether there was synergy, additive effect or antagonism, the sum of fractional inhibition concentration (∑FIC) was calculated using the formula Ax/Ay + Bx/By = K, where Ax and Bx are the IC50s when the substances are used in combination, and Ay and By are the IC50s, when the substances are used alone. The data was scored with the scale ∑FIC < 1: synergism, 2 > ∑FIC ≥ 1: additive, 4 > ∑FIC ≥ 2: slight antagonism, ∑FIC ≥ 4: marked antagonism.

Series [6] has as its system human larynx carcinoma (HEp2) cells. Put plainly: MTT cytotoxicity assay, HEp2 cells. The series is classed as cell-based. To be noted: HEp-2, pure compounds, 48 h. As for the experimental part: A rapid colorimetric assay was carried out using 3-(4,5-dimethylthiazol-2-yl)-2,5-diphenyltetrazolium bromide (MTT). This assay is based on the ability of a mitochondrial dehydrogenase enzyme from viable cells to cleave the tetrazolium rings of the pale yellow MTT and thereby form dark blue formazan crystals, which are largely impermeable to cell membranes, resulting in their accumulation within healthy cells. The amount of generated formazan is directly proportional to the number of cells. In this assay, the mammalian cell lines African monkey kidney (vero), mouse breast cancer (4T1) and human larynx carcinoma (HEp2) were used. Cells were maintained in Eagle’s Minimum Essential Medium (MEM) containing 10% fetal bovine serum (FBS). A cell density of 20.000 cells per well in 100 μL were seeded on 96-well plates and incubated for 12 h at 37 °C and 5% CO2 to attach to the surface. Samples of the tested extracts and isolated compounds were added to the cultured cells in rows H-B over a concentration range of 0.14 to 100 μg/mL, whereas wells 1–8 of row A served as untreated controls and wells 9–12 as blank (1% DMSO, v/v). The plates were incubated for 48 h at 37 °C and 5% CO2, followed by an addition of 10 µL MTT viability indicator reagent. The plates were incubated for additional 4 h at the same conditions. Next, all media was removed from the plates and 100 µL DMSO was added to dissolve the formazan crystals. The plates were read on a Multiskan EX Labsystems scanning multi-well spectrophotometer at 562 nm, and 620 nm as reference. The results were recorded as optical density (OD) per well at each drug concentration. The data was transferred into the software Microsoft Excel and expressed as percentage of the untreated controls. Percentage cytotoxicity (PC) as compared to the untreated controls was calculated as PC = [A − B/A] × 100, where A is the mean OD of the untreated cells and B is the mean OD at each drug concentration. The drug concentration required for 50% inhibition of cell growth was estimated using nonlinear regression analysis of the dose- response curve.

Series [7] deals with chloroquine-sensitive D6 strain of P. falciparum. Put plainly: In vitro antiplasmodial assay, (G-3H) hypoxanthine incorporation, D6 strain. The note with it: Plasmodium falciparum; pure compounds; P. falciparum D6; mean of at least three independent experiments; read-out: IC50 D6. The format is cell-based. The procedure:
as §2

Each structure is given as a SMILES string. Marks after values point to notes of the source that are not given here.

As for `CC1(C)CC[C@]2(C(=O)O)CC[C@]3(C)C(=CC[C@@H]4[C@@]5(C)CC[C@H](O)C(C)(C)[C@@H]5CC[C@]43C)[C@@H]2C1` [Compound 4, oleanolic acid], the IC50 in series [1] worked out at 112 ± 5.1 µM; in series [2], 118 ± 2.6 µM; in series [3], 39.82 ± 0.03 µM; in series [4], 82.7 ± 2 µM; with vero cells (Primates, ratio 0:1, in the absence of 2 (for 2: alone), read-out: IC50 (μg/mL), substance alone), 40.3 µg/mL; in series [6] it was 134.9 ± 0.7 µM. Further, the IC50 in series [7] came to 49.6 ± 2.3 µM. Besides, in series [5], the “in vitro antiplasmodial activity against 3D7, in words” value was “moderate”. In the series on vero cells, the “Interaction with the cytotoxic effect of oleanonic acid (2), in words” value was “slight antagonistic effect”. The “∑FIC 1:1” value with vero cells (ratio of oleanonic acid (2) versus constituent 1:1) was 4.7 ^c. Also, the “∑FIC 1:3” value in the series with vero cells (ratio of oleanonic acid (2) versus constituent 1:3) is given as 3.3 ^c. Further, the “∑FIC 3:1” value in the series on vero cells (ratio of oleanonic acid (2) versus constituent 3:1) is reported as 3.6 ^c.

Values taken from publication PMC6270759, “Constituents of the Roots and Leaves of Ekebergia capensis and Their Potential Antiplasmodial and Cytotoxic Activities” (Molecules, 2014).
